Experimental data as given in patent US9174940B2, “TSH receptor antagonizing tetrahydroquinoline compounds” (Merck Sharp & Dohme B.V., priority 2007, dated 2015).

Experiments:
[1] = target: T1, human TSH receptor (Homo sapiens (Human), UniProt P16473); assay: Antagonist activity against human TSI at the human TSH receptor expressed in CHO cells (CRE-luciferase reporter, rolipram); assay type: cell-based; conditions: stimulated with 3.16 mg/ml human TSI; 10 μM rolipram; CHO cells cultured 16 h without serum
T1 sequence (P16473 21-764): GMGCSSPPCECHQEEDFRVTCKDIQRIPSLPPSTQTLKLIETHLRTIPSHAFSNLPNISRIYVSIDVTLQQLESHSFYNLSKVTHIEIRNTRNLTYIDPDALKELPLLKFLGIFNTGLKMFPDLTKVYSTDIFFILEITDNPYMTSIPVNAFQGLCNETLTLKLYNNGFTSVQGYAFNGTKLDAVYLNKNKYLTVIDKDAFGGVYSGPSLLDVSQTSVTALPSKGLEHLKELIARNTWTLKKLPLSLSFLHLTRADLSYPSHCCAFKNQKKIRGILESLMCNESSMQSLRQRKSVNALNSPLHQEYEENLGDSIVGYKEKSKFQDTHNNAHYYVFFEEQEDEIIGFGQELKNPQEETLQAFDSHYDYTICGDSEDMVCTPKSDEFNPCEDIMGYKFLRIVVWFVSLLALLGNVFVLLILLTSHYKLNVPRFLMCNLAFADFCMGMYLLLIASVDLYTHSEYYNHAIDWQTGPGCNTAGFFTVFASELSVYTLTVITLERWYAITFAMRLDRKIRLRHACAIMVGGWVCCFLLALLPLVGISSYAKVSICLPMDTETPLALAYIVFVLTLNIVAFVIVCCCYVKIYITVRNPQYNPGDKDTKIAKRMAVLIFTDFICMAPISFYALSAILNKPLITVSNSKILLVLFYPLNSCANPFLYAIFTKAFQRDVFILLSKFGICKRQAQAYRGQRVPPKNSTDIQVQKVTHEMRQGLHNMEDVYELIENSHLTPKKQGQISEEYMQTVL

[2] = target: T1, human TSH receptor; assay: Antagonist activity against bovine TSH at the human TSH receptor in CHO cells under the TSI assay conditions (CRE-luciferase reporter, rolipram); assay type: cell-based; conditions: stimulated with 18 nM bovine TSH; 10 μM rolipram; CHO cells cultured 16 h without serum
[3] = target: T1, human TSH receptor; assay: Antagonist activity against TSH at the human TSH receptor expressed in CHO cells (CRE-luciferase reporter); conditions: together with 18 nM bovine TSH
Description: Antagonist activity of the compounds against TSH at the human TSH receptor was tested in Chinese Hamster Ovary (CHO) cells stably transfected with a plasmid encoding the human TSH receptor and a second plasmid with a cAMP responsive element (CRE)/promotor directing the expression of a firefly luciferase reporter gene. Binding of bovine TSH to the Gs-coupled TSH receptor will result in an increase of cAMP, which in turn will induce an increased transactivation of the luciferase reporter. Luciferase activity was quantified using a luminescence counter.

[4] = system: constitutively active human TSHR mutants (Thr632Ile, Ala623Val, Ile568Thr, Asp619Gly and Asp633Glu); assay: Antagonist activity at constitutively active human TSH receptors expressed in CHO cells (cAMP Alphascreen); assay type: cell-based; conditions: 10^−6M compound, 10 μM rolipram, transiently transfected CHO cells
Description: Antagonist activity of two compounds was tested in Chinese Hamster Ovary (CHO) cells transiently transfected with a plasmid encoding one of the 5 most prevalent, constitutively active human TSHR mutants (Thr632Ile, Ala623Val, Ile568Thr, Asp619Gly and Asp633Glu) (van Sande et al. (1995) J. Clin. Endocrinol. Metabol. 80, 2577-2585), which have been identified in autonomously functioning thyroid nodules causing hyperthyroidism. The cells were incubated with 10^−6M of either the compound of example 35 or example 1 in the presence of 10 μM rolipram. Activity of the TSH receptor mutants was quantified using a Packard cAMP Alphascreen assay.

Row | Compound | IC50 [3] | other results
1 | CC(=O)N1CCC(C)(c2ccccc2)c2cc(NC(=O)OC3CCCC3)ccc21 (single isomer, unassigned; (+)) [Example 39] | – | IC50 [1]: 12 nM; IC50 [2]: 48 nM
2 | CC(=O)N1CCC(C)(c2ccccc2)c2cc(NC(=O)OCc3ccc(F)c(Cl)c3)ccc21 (single isomer, unassigned; (+)) [Example 40, (+)-(1-Acetyl-4-methyl-4-phenyl-1,2,3,4-tetrahydro-quinolin-6-yl)-carbamic acid 3-chloro-4-fluoro-benzyl ester] | – | IC50 [1]: 47 nM; IC50 [2]: 192 nM
3 | CC(=O)N1CCC(C)(c2ccccc2)c2cc(NC(=O)OCCC(C)C)ccc21 (stereo not drawn) [Example 27, (1-Acetyl-4-methyl-4-phenyl-1,2,3,4-tetrahydro-quinolin-6-yl)-carbamic acid 3-methyl-butyl ester] | < 100 nM | –
4 | CC(=O)N1CCC(C)(c2ccccc2)c2cc(NC(=O)OCC3(C)CC3)ccc21 (stereo not drawn) [Example 28, (1-Acetyl-4-methyl-4-phenyl-1,2,3,4-tetrahydro-quinolin-6-yl)-carbamic acid 1-methyl-cyclopropylmethyl ester] | < 100 nM | –
5 | CC(=O)N1CCC(C)(c2ccccc2)c2cc(NC(=O)OCC3CCC3)ccc21 (stereo not drawn) [Example 29, (1-Acetyl-4-methyl-4-phenyl-1,2,3,4-tetrahydro-quinolin-6-yl)-carbamic acid cyclobutylmethyl ester] | < 100 nM | –
6 | CC(=O)N1CCC(C)(c2ccccc2)c2cc(NC(=O)OCc3ccc(F)c(Cl)c3)ccc21 (stereo not drawn) [Example 34, (1-Acetyl-4-methyl-4-phenyl-1,2,3,4-tetrahydro-quinolin-6-yl)-carbamic acid 3-chloro-4-fluoro-benzyl ester] | < 100 nM | –
7 | CC(=O)N1CCC(C)(c2ccccc2)c2cc(NC(=O)c3ccc(Br)s3)ccc21 (stereo not drawn) [Example 35, 5-Bromo-thiophene-2-carboxylic acid (1-acetyl-4-methyl-4-phenyl-1,2,3,4-tetrahydro-quinolin-6-yl)-amide] | – | inhibition of constitutive activity of all 5 receptor mutants [4]: > 80%

More lines, main results first:

Row | IC50 [3] | Compound | other results
8 | < 100 nM | CCCCCC(=O)Nc1ccc2c(c1)C(C)(c1ccccc1)CC(C)(C)N2C(C)=O (stereo not drawn) [Example 1, Hexanoic acid (1-acetyl-2,2,4-trimethyl-4-phenyl-1,2,3,4-tetrahydro-quinolin-6-yl)-amide] | IC50 [1]: 88 nM; inhibition of constitutive activity of all 5 receptor mutants [4]: > 80%; IC50 [2]: 368 nM
9 | < 100 nM | CC(=O)N1c2ccc(NC(=O)c3ccccn3)cc2C(C)(c2ccccc2)CC1(C)C (stereo not drawn) [Example 4, Pyridine-2-carboxylic acid (1-acetyl-2,2,4-trimethyl-4-phenyl-1,2,3,4-tetrahydro-quinolin-6-yl)-amide] | –
10 | < 100 nM | CC(=O)N1c2ccc(NC(=O)OCCOc3ccccc3)cc2C(C)(c2ccccc2)CC1(C)C (stereo not drawn) [Example 6, (1-Acetyl-2,2,4-trimethyl-4-phenyl-1,2,3,4-tetrahydro-quinolin-6-yl)-carbamic acid 2-phenoxy-ethyl ester] | –
11 | < 100 nM | CCCCOC(=O)Nc1ccc2c(c1)C(C)(c1ccccc1)CC(C)(C)N2C(C)=O (stereo not drawn) [Example 7, (1-Acetyl-2,2,4-trimethyl-4-phenyl-1,2,3,4-tetrahydro-quinolin-6-yl)-carbamic acid butyl ester] | –
12 | < 100 nM | CC(=O)N1c2ccc(NC(=O)CCc3cccc(Cl)c3)cc2C(C)(c2ccccc2)CC1(C)C (stereo not drawn) [Example 26, N-(1-Acetyl-2,2,4-trimethyl-4-phenyl-1,2,3,4-tetrahydro-quinolin-6-yl)-3-(3-chloro-phenyl)-propionamide] | –
13 | < 100 nM | (1-Acetyl-4-methyl-4-phenyl-1,2,3,4,4a,8a-hexahydro-quinolin-6-yl)-carbamic acid cyclopentyl ester [Example 32] | –
